Measured values reported in US20160153045A1, “Biomarkers for Increased Risk of Drug-Induced 5-Aminosalicylate Nephrotoxicity” (Severe Adverse Event (SAE) Consortium, priority 2014, published 2016).

Tests used:
[1] = test system: Inflammatory bowel disease patients; conditions: human, in vivo
Text: Methods: Inflammatory bowel disease patients were recruited from 89 sites around the world. Inclusion criteria included normal renal function prior to commencing 5-ASA, ≧50% rise in creatinine any time after starting 5-ASA and physician opinion implicating 5-ASA strong enough to justify drug withdrawal. An adjudication panel identified definite and probable cases from structured case report forms. A genome wide association study was then undertaken with these cases and 4,109 disease controls.
Patient Recruitment: Individual study sites identified and recruited patients with 5-ASA induced nephrotoxicity. This study was open to recruitment at 118 UK research sites (73.8% of the 160 acute NHS trusts in the UK) as well as 45 international sites. In total 77 sites from the UK and 12 sites from outside the UK recruited one or more patients. The protocol was approved by the National Research Ethics Committee South West, Exeter, UK (10/H0203/76) and by all local research and development offices.
Inclusion criteria for patient recruitment required the presence of all of the following: • Patient administered any 5-ASA compound for treatment of inflammatory bowel disease (Crohn's disease, ulcerative colitis or IBD-unclassified) • Patient aged 6 or over • Normal creatinine or estimated glomerular filtration rate (eGFR) prior to first administration of 5-ASA or a creatinine that returned to the normal range after cessation of therapy • Greater than or equal to 50% rise in serum creatinine any time after introduction of 5-ASA • Physician opinion implicating 5-ASA strong enough to justify drug withdrawal, even if temporary
Cases were identified from recruiting sites through clinics and systematic searches of historical records and pathology databases. Gastroenterologists who replied to a 2001-2002 UK survey of 5-ASA induced nephrotoxicity were encouraged to submit cases^10. Clinicians who had submitted adverse drug reaction reports to the Medicines and Healthcare Products Regulatory Agency (MHRA) were invited to consider recruiting patients. Direct advertising to patients through the national patient newsletter was also undertaken. Cases were recruited who developed nephrotoxicity between 1988 and 2013 (73% of cases were diagnosed with renal injury after the year 2000).
Case adjudication: An anonymised case report form detailing demographic, clinical and drug history was completed with the aid of hospital records. Two 6 ml EDTA blood samples were taken at this visit for DNA extraction (BD Vacutainer, USA). The case report forms also requested creatinine levels and their corresponding dates at four time points: 1) at baseline (usually before 5-ASA commenced, but not exclusively), 2) at the recording of first abnormal creatinine value, 3) the worst creatinine value and 4) the best recovered creatinine value. After data collection, the last normal creatinine value before development of renal injury was also obtained, if it was available (92/151 cases), to enable better characterisation of the time period. If a renal biopsy was performed, the anonymised report was requested.
To assess patient eligibility for entry to this study, at least three gastroenterologists and at least one nephrologist reviewed each case for causality at a dedicated in-person adjudication panel meeting. For each case the evidence implicating the 5-ASA as the cause of nephrotoxicity was assessed using an adapted version of the validated Liverpool Adverse Drug Reaction Causality Assessment Tool^16. Patients were classified as definite, probable, possible or unlikely cases of 5-ASA nephrotoxicity based on the adjudicator's independent assessment that the nephrotoxicity was due to 5-ASA treatment. The panel discussed all cases before a final adjudication decision was reached. Only individuals classified as probable or definite cases of 5-ASA induced nephrotoxicity were taken forward for clinical and genetic analyses. […]

patients = conditions: in vivo; cited from earlier work

biopsies with acute interstitial inflammation [1]: 22% | biopsies with acute on chronic interstitial inflammation [1]: 20% | biopsies with only chronic inflammatory changes in the interstitium [1]: 58% | cases with an abnormal creatinine within the first 12 months of treatment [1]: 13% | cases with full recovery of renal function after drug withdrawal [1]: 30% | patients requiring renal replacement therapy [1]: 15 patients | renal biopsies with clear evidence of interstitial nephritis [1]: 57 patients
SMILES: Nc1ccc(O)c(C(=O)O)c1 [5-ASA, 5-aminosalicylate]
definite cases: second episode of kidney injury when re-challenged with the agent [1]: 5 cases | annual risk of nephrotoxicity (patients): 0.26%
